Where no end group is shown, it is not given here. [ ]: non-standard residue; d: D form.

Type in all cases: cell-based
For assay [1], the system named is IEC6 cells. The assay is described as follows: Real-Time Cell Electronic Sensing (RT-CES, ACEA) assay of cell morphology change. Details: key: + indicates an enhancement of the permeability of the tight junctions were observed; − indicates no enhancement of permeability was observed. Particulars: peptide at 5 mg/mL. The text has this:
Agonists of tight junctions can be identified by their ability to induce changes in morphology of cells in a monolayer of cells that comprise tight junctions. Such changes in the morphology of IEC6 cells may be measured using a Real-Time Cell Electronic Sensing protocol as described below.
Tight junction agonists can be identified using the following method an used in peptide conjugates of the invention:
Materials: cells: IEC6 passage 30-50, medium: DMEM 10% no calcium no magnesium, foetal bovine serum 0.1 unit per ml bovine insulin, buffers: phosphate buffered saline (PBS) no calcium no magnesium, trypsin: 0.25% porcine trypsin in HBSS no calcium no magnesium, flasks: 100×20 mm Tissue culture dish Falcon, plates: 16× E-Plate, machine: RT-CES™ 16× system (ACEA Biosciences, Inc., San Diego, Calif.)
Wash a 75 cm^2 flask of confluent IEC6 cells twice with 25 ml of PBS.
Add 2.5 ml of trypsin to the flask and place back in the incubator at 37° C.
Wash cells from the surface of the flask with 10 ml of serum containing media to quench the trypsin.
Pellet the cells by centrifugation at 1500 rpm for 5 minutes aspirate the media.
Resuspend the cell pellet in 10 ml of serum free media and centrifuge at 1500 rpm for 5 minutes aspirate the media and repeat for a total of 5 washes.
Take 100 μl of cells and mix with 100 μl of trypan blue.
Count the cells four times and use the average cell concentration.
Dilute the cells to 1×10^6 per ml in serum free media.
Add 100 μl of serum free media to each well of the ACEA plates to be used.
Insert the ACEA plate and press scan.
Run step 1 of the program to measure background.
Add 50 μl of cells to each well of the ACEA plate tap each slide of the plate 10 times and place the cells on the bench for 15 minutes to allow the cells to settle.
Insert the ACEA plate and run the scan step to check connections and run step 2-1 and 2-2 overnight.
Step 2-1 sample every 2 minutes 30 times.
Step 2-2 sample every 15 minutes 100 times.
The cell indices should be between 6-10 after the overnight run and should have reached a plateau.
Remove 100 μl of media carefully from each well.
Make up the compounds to be tested so that 50 μl contains 2× the desired final concentration.
Add 50 μl of compounds to the designated wells.
Scan the plate to check connections.
Step 3-1 sample every 2 minutes 30 times.
Step 3-2 sample every 15 minutes 100 times.

Assay [2] relates to CaCo2 monolayers. The assay can be described thus: Epithelial flux of Lucifer Yellow through cell monolayer. Also on record: key to Enhanced LY permeability: + indicates an enhancement of the permeability of the tight junctions were observed; − indicates no enhancement of permeability was observed. Particulars: Lucifer Yellow flux, Caco-2 monolayer. In a few lines: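 Caco-2 cells (passage 40-60) grown 21-28 days on Transwell filters, equilibrated 30 min at 37 °C in HBSS-HEPES pH 7.4; Lucifer Yellow with test compound applied apically, n=3 filters. Basolateral samples at 60, 120, 180 min read by fluorescence at 485/535 nm against standard curve; TEER also measured.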

Assay [3] concerns CaCo2 monolayers. The assay can be described thus: Trans Epithelial Electric Resistance (TEER) across cell monolayer. Particulars: Caco-2 monolayer. Also on record: key to Reduced TEER: + indicates an enhancement of the permeability of the tight junctions were observed; − indicates no enhancement of permeability was observed. In a few lines: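 Caco-2 cells, passage 40-60, grown 21-28 days on Transwell filters, equilibrated 30 min at 37° C in MHBSS pH 7.4. Test compound with Lucifer Yellow applied apically (n=3), incubated at 37° C with 50 RPM shaking; TEER measured at baseline and at 30, 60, 120 and 180 min.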

Take “5 (FCIARL; not fully specified; printed as Phe-Cys-Ile-Ala-Arg-Leu) [compound 5]”: in assay [1], the “ACEA 5 mg/mL” value is “−”. Besides, the “Enhanced LY permeability” value in assay [2] is reported as “−”. Also, the “Reduced TEER” value in assay [3] was “−”.
Turning to “22 (L[dR]G[dI][dC][dF]; not fully specified; printed as Leu-D-Arg-Gly-D-Ile-D-Cys-D-Phe) [compound 22]”, the “ACEA 5 mg/mL” value in assay [1] is given as “−”. The “Enhanced LY permeability” value in assay [2] is reported as “+”. Further, in assay [3], the “Reduced TEER” value is listed as “+”.
In the case of “32 ([dF][dC]IG[dR][dL]; not fully specified; printed as D-Phe-D-Cys-Ile-Gly-D-Arg-D-Leu) [compound 32]”, in assay [1], the “ACEA 5 mg/mL” value is on record as “−”. Further, the “Enhanced LY permeability” value in assay [2] was “+”. In assay [3], the “Reduced TEER” value is given as “+”.
Consider “14 (FC[dI]GRL; also: peptide conjugate) [compound 14]”, for which, in assay [1], the “ACEA 5 mg/mL” value is “−”. For the same substance, in assay [2], the “Enhanced LY permeability” value is recorded as “+”. Moreover, in assay [3], the “Reduced TEER” value is listed as “+”.
Take “17 ([dL][dR]G[dI][dC][dF]; also: peptide conjugate) [compound 17]”: the “ACEA 5 mg/mL” value in assay [1] is “−”. The “Enhanced LY permeability” value in assay [2] was “+”. Also, the “Reduced TEER” value in assay [3] is on record as “+”.
Turning to “16 (FCIGR[dL]; also: peptide conjugate) [compound 16]”, in assay [1], the “ACEA 5 mg/mL” value is “−”. For the same substance, in assay [2], the “Enhanced LY permeability” value was “−”. Further, the “Reduced TEER” value in assay [3] is reported as “−”.
Take “7 (FCIGRA; not fully specified; printed as Phe-Cys-Ile-Gly-Arg-Ala) [compound 7]”: the “ACEA 5 mg/mL” value in assay [1] is given as “+”. The “Enhanced LY permeability” value in assay [2] is listed as “+”. For the same substance, in assay [3], the “Reduced TEER” value is “+”.
Consider “33 ([dF]C[dI]G[dR][dL]; not fully specified; printed as D-Phe-Cys-D-Ile-Gly-D-Arg-D-Leu) [compound 33]”, for which the “ACEA 5 mg/mL” value in assay [1] was “+”. In addition, the “Enhanced LY permeability” value in assay [2] is listed as “−”. Moreover, the “Reduced TEER” value in assay [3] is given as “−”.
As to “24 ([dL]RGICF; not fully specified; printed as D-Leu-Arg-Gly-Ile-Cys-Phe) [compound 24]”, the “ACEA 5 mg/mL” value in assay [1] is “+”. Also, in assay [2], the “Enhanced LY permeability” value is “−”. The “Reduced TEER” value in assay [3] is “−”.
As to “13 (F[dC]IGRL; also: peptide conjugate) [compound 13]”, in assay [1], the “ACEA 5 mg/mL” value is given as “+”. Moreover, the “Enhanced LY permeability” value in assay [2] is “+”. The “Reduced TEER” value in assay [3] is on record as “+”.
Take “29 ([dF][dC][dI]G[dR][dL]; not fully specified; printed as D-Phe-D-Cys-D-Ile-Gly-D-Arg-D-Leu) [compound 29]”: in assay [1], the “ACEA 5 mg/mL” value is given as “−”. For the same substance, the “Enhanced LY permeability” value in assay [2] is “+”. Also, in assay [3], the “Reduced TEER” value was “+”.
As to “19 ([dL][dR]G[dI]C[dF]; not fully specified; printed as D-Leu-D-Arg-Gly-D-Ile-Cys-D-Phe) [compound 19]”, in assay [1], the “ACEA 5 mg/mL” value is listed as “+”. Moreover, the “Enhanced LY permeability” value in assay [2] is listed as “+”. For the same substance, in assay [3], the “Reduced TEER” value is on record as “+”.
On to “23 (LRGICF; not fully specified; printed as Leu-Arg-Gly-Ile-Cys-Phe) [compound 23]”, for which the “ACEA 5 mg/mL” value in assay [1] is “−”. In addition, in assay [2], the “Enhanced LY permeability” value is on record as “+”. Moreover, the “Reduced TEER” value in assay [3] is recorded as “+”.

The values are drawn from patent US20120027720A1, “PEPTIDE CONJUGATES” (priority 2008, published 2012).
